Assay results as given in paper PMC11587516 (ACS Chemical Neuroscience, 2024).
Substitutions are numbered along the chain they refer to.

Experiments:
Type in all cases: cell-based
[1] = target: T1, hGAT3 (Homo sapiens, UniProt P48066); experiment: [3H]GABA uptake assay, CHO cells stably expressing hGAT3
T1 construct: expressed in transfected cells
T1 sequence (P48066 1-632): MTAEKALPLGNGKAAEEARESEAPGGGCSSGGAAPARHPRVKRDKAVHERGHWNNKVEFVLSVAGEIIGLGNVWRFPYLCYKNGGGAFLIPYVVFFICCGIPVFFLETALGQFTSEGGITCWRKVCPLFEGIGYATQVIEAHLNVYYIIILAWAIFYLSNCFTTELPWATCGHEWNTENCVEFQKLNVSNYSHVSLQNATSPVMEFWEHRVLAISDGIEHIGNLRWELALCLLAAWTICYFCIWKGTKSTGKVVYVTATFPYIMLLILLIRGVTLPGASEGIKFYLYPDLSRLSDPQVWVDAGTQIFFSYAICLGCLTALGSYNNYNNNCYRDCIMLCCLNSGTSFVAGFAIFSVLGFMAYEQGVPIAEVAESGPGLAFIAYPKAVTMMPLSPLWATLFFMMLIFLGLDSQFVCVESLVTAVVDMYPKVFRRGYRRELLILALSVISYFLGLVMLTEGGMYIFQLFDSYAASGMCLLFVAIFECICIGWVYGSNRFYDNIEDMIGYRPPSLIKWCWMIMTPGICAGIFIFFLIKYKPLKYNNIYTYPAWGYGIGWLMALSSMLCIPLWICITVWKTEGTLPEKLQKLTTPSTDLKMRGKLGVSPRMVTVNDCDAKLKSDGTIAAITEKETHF

[2] = target: T2, hBGT1 wt (Homo sapiens, UniProt P48065); experiment: [3H]GABA uptake assay, wild type hBGT1 transiently expressed in tsA201 cells
T2 construct: expressed in transfected cells; host or cells: tsA201 cells (transformed HEK293), transient expression
T2 sequence (P48065 1-614): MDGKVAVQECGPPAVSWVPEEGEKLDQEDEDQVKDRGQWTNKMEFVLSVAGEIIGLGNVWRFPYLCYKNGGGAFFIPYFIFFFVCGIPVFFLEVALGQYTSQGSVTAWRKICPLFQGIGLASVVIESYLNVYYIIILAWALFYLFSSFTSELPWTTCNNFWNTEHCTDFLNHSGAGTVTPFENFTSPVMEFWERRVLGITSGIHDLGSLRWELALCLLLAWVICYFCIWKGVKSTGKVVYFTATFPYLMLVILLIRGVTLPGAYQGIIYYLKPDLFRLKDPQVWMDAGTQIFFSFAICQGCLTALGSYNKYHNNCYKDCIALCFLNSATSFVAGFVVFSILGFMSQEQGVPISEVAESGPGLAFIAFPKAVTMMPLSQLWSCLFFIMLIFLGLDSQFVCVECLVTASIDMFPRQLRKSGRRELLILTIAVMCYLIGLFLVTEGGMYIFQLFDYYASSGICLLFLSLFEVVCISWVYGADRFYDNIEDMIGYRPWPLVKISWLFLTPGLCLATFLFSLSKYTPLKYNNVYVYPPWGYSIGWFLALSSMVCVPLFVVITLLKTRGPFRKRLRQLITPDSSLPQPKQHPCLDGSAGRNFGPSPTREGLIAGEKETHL
Protocol: (§1) To validate the molecular modeling, particularly the crucial interactions with the Glu52 and Gln299 residues, the activity of compound 9 was tested on the following hBGT1 mutants: E52A, E52Y, Q299L, and the double mutant E52A+Q299L (Figure 5 and Table 1).[14]
(§2) The CHO cells were placed in 96-well plates (approximately 50,000 cells/well) for about 24 h before the experiment. […] After incubation, cells were washed 3 times with 100 μL/well ice-cold assay buffer, 150 μL/well MicroScint20 (PerkinElmer) was subsequently added before the plate was shaken for at least 1 h. The radioactivity of each well of the plate was measured on a TopCount NXT scintillation counter. […] Data presented are the pooled data of at least three independent experiments with three technical replicates if not stated otherwise in figure legends. Concentration–response curves were fitted by nonlinear regression to the sigmoidal concentration–response model with GraphPad Prism v 9.0.
(§3) The tsA201 cell line (a transformed HEK293 cell line) has been described previously and was cultured accordingly.[20] The tsA201 cells used for transient expression of hBGT1 mutants were transfected with DNA constructs (8 μg per 10 cm plate) using 40 μL of PolyFect transfection reagent according to the manufacturer’s protocol (Qiagen). […]

[3] = target: T3, hBGT1 E52Y (Homo sapiens, UniProt P48065, E52Y); experiment: [3H]GABA uptake assay, hBGT1 mutant E52Y in tsA201 cells
T3 construct: host or cells: tsA201 cells (transformed HEK293), transient expression
T3 sequence (P48065 1-614 E52Y): T2 sequence (P48065 1-614) with E52Y
Protocol: as §1, §2, §3

[4] = tested on: normal human astrocytes (NHA); experiment: Confocal imaging of astrocyte morphology after incubation in PBS (non-GABA conditions); details: 500 μM in PBS, non-GABA environment; 72 h
Protocol: To this end, we tested whether blocking the transport of GABA under experimental non-GABA extracellular conditions may impair the homeostasis of these cells. […] Afterward, the cells were stained to visualize actin filaments using confocal microscopy. […] Nevertheless, further kinetic studies are necessary to verify this hypothesis.
NHA was grown on a coverslip in a 35 mm culture dish. After treatment, the cells were fixed (4% paraformaldehyde) and permeabilized (0.1% Triton X-100). Then, the samples were stained with Phalloidin-Atto 565 (Sigma-Aldrich, Inc.) according to the manufacturer’s protocol. Laser confocal microscope Nikon Eclipse Ti-E A1R-Si and Nikon NIS Elements AR software were used for cell imaging.

NC12CC(C(=O)O)(C1)C2 [Compound 9]
IC50 [1]: 58.3 µM
inhibition at 100 µM ([1]; CHO, read-out: inhibition of GABA uptake): ~73%
IC50 [2]: 33.9 µM
IC50 [3]: > 1000 µM
activity at mutant compared with wild type hBGT1 ([3]; E52Y vs wt): complete loss of activity
astrocyte morphology (actin staining) [4]: cell shrinkage and a loss of cell-to-cell contact
